Like-named read-outs stand apart in the source and are kept apart here.
Key:
[1] = cited from earlier work
[2] = test system: Male DBA/2J mice; assay: Prepulse inhibition (PPI) model, Compound A alone; type: in vivo, mouse; conditions: Compound A alone at 0.01, 0.1 and 1.0 mg/kg i.p., 30 min before testing; FIG. 1
Excerpt: Dysfunctions of sensory gating and information processing have been putatively associated with clinical features such as perpetual aberrations, hallucinations and distraction and been considered as potential precursors of sensory overload, cognitive fragmentation and disorganization. Among the physiological measures, one approach has involved the startle reflex with the prepulse inhibition (PPI) paradigm. […] PPI refers to a reduction in the acoustic startle reflex to a loud noise when the loud noise is preceded by a weak auditory stimulus. At short lead intervals, this has the effect of markedly reducing or gating the amplitude of the startle response and increasing its latency. Disruption of PPI occurs with agonists of dopamine and serotonin, and with glutamate/N-methyl D aspartate (NMDA) receptor antagonists, or can be induced by genetic (e.g., DBA2 mouse strain) and experimental manipulations (e.g., rearing rats in isolation, neurotoxic lesions, or other methods). […] (Olivier B., et al., Psychopharmacology (2001) vol. 156:284-290; Ouagazzal A-M., Psychopharmacology (2001) vol. 156:273-283; Simosky J. K., Psychopharmacology (2003) vol. 165:386-396). […]
Animals: Male DBA/2J mice (Jackson Labs AX9 facility, Bar Harbor, Me., USA) at age 6-8 weeks old were used. […] Experimental Procedure: Startle response and PPI were measured using startle chambers from Hamilton Kinder (Poway, Calif., USA). […]

[3] = test system: Male DBA/2J mice; assay: Prepulse inhibition (PPI) model, Compound A on a subefficacious dose of risperidone; type: in vivo, mouse; conditions: FIG. 2
Procedure: Animals: Male DBA/2J mice (Jackson Labs AX9 facility, Bar Harbor, Me., USA) at age 6-8 weeks old were used. They were housed under standard facility conditions in groups of eight on a 12 h light/dark cycle (lights on at 0600 h) with ad libitum access to food and water. Chemicals: 2-{4′-[(3aR,6aR)-5-Methylhexahydropyrrolo[3,4-b]pyrrol-1(2H)-yl]-1,1′-biphenyl-4-yl}pyridazin-3(2H)-one was prepared at Abbott Laboratories; risperidone (3-[2-[4-(6-fluoro-1,2-benzisoxazol-3-yl)-1-piperidinyl]ethyl]-6,7,8,9-tetrahydro-2-methyl-4H-pyridol[1,2-a]pyrimidin-4-one, MW 410.5) was obtained from ICN Biomedicals Inc. (Aurora, Ohio, USA). […] Experimental Procedure: Startle response and PPI were measured using startle chambers from Hamilton Kinder (Poway, Calif., USA). […] In the startle alone trials, the amount of PPI was calculated as a percentage score for each acoustic prepulse trial type using (typically) the formula: […]. Statistics: Data were analyzed using a one-way ANOVA. All post hoc significance was determined using Dunnett's multiple comparison test (p<0.05 was regarded as significance). […]
Statistics: Data were analyzed using a one-way ANOVA. All post hoc significance was determined using Dunnett's multiple comparison test (p<0.05 was regarded as significance).

[4] = test system: Male Sprague Dawley rats; assay: Catalepsy (bar test), Compound A in combination with risperidone; type: in vivo, rat; conditions: Compound A 0.1 or 1.0 mg/kg i.p. 10 min prior to risperidone 2.5 mg/kg i.p.; total catalepsy over 60-240 min; FIG. 3
Procedure: Animals: Male Sprague Dawley rats (CRL: CD (SD), Charles River Laboratories, Omaha, Nebr., USA) weighing 300-325 g were used for the experiment. They were housed under standard conditions in groups of 4 rats on a 12 h light/dark cycle (lights on at 0600 h) with ad libitum access to food and water. Preparation of Compounds: 2-{4′-[(3aR,6aR)-5-Methylhexahydropyrrolo[3,4-b]pyrrol-1(2H)-yl]-1,1′-biphenyl-4-yl}pyridazin-3(2H)-one (Compound A) and risperidone were solubilized as described above, and were administered in solution in a volume of 1.0 ml/kg body weight. Experimental Procedure: Rats were handled and habituated to the testing room before starting. […] The degree of catalepsy was measured by gently placing both forepaws over a metal bar (1.1 cm. diameter suspended 8 cm. above the table top). The time in seconds until the rat took both paws off the bar was recorded, with a maximum cut-off of 300 seconds. […] At least 5 trials were attempted on each rat with 5 seconds used as a low-end cut-off for catalepsy (time scored as zero). For catalepsy times between 5-15 seconds, the highest time of 5 trials was recorded. Alternately, any catalepsy trial time that was greater than 15 seconds (up to 300 seconds) was recorded. Statistics: Data for the 4 times points were summed across the session, and the total catalepsy scores were analyzed using a one-way analysis of variance (ANOVA). […]

[5] = clinical use, Table 1, hyperprolactinaemia
[6] = clinical use, Table 1, sexual dysfunction

## O=C1CCc2ccc(OCCCCN3CCN(c4cccc(Cl)c4Cl)CC3)cc2N1 [Arpiprazole]
[1]; Table 2
  Dose of Increased Side Effect Risk (somnolence), in words: dose dependent
[1]; clinical use, Table 1
  Other Dose Related Side Effects: somnolence

## CN1CCN(C2=Nc3cc(Cl)ccc3Nc3ccccc32)CC1 [Clozapine, 8-chloro-11-(4-methyl-1-piperazinyl)-5H-dibenzo[b,e][1,4]diazepine]
[1]; Table 2
  Dose of Increased Side Effect Risk (low risk for seizures): <300 mg/day
  Dose of Increased Side Effect Risk (moderate risk for seizures): 300 to 599 mg/day

## CN1C[C@H]2CCN(c3ccc(-c4ccc(-n5ncccc5=O)cc4)cc3)[C@H]2C1 [Compound A, 2-{4′-[(3aR,6aR)-5-methylhexahydropyrrolo[3,4-b]pyrrol-1(2H)-yl]-1,1′-biphenyl-4-yl}pyridazin-3(2H)-one]
[2]
  PPI responding: did not significantly alter PPI responding
[3]; 0.1 mg/kg Compound A + 0.1 mg/kg risperidone, comparable to 1.0 mg/kg risperidone
  efficacy of risperidone (0.1 mg/kg) in PPI in combination with 0.1 mg/kg Compound A: attained maximal efficacy
[3]; Compound A 0.01, 0.1 or 1.0 mg/kg i.p. 35 min, risperidone 0.1 mg/kg 25 min prior to testing
  efficacy of risperidone (0.1 mg/kg) in PPI in the presence of Compound A: more efficacious
[4]
  cataleptic behavior of risperidone when administered in combination: did not significantly alter cataleptic behavior

## O=C(CCCN1CCC(O)(c2ccc(Cl)cc2)CC1)c1ccc(F)cc1 [Haloperidol, 4-(4-chlorophenyl)-1-[4-(4-fluorophenyl)-4-oxobutyl]-4 piperidinyl]
[1]; Table 2, risk for EPS
  Dose of Increased Side Effect Risk: ~3 mg
[1]; [5]
  Other Dose Related Side Effects: hyper-
[1]; [6]
  Other Dose Related Side Effects: sexual

## Cc1nc2n(c(=O)c1CCN1CCC(c3noc4cc(F)ccc34)CC1)CCCC2 [Risperidone, 3-[2-[4-(6-fluoro-1,2-benzisoxazol-3-yl)piperidino]ethyl]-2-methyl-6,7,8,9-tetrahydro-4H-pyrido-[1,2-a]pyrimidin-4-one]
[1]; Table 2
  Dose of Increased Side Effect Risk (EPS risk): ≧6 mg/day
[1]; [5]
  Other Dose Related Side Effects: hyper-
[1]; [6]
  Other Dose Related Side Effects: sexual

## O=C1Cc2cc(CCN3CCN(c4nsc5ccccc45)CC3)c(Cl)cc2N1 [Ziprasidone, 5-[2-[4-(1,2-benzoisothiazol-3-yl)-1-piperazinyl]ethyl]-6-chloro-1,3-dihydro-2H-indol-2-one]
[1]; Table 2
  Dose of Increased Side Effect Risk (EPS risk): >80 mg/day
[1]; clinical use, Table 1
  EPS risk: dose of augmented risk: risk >80 mg/kg/day

From patent US8252801B1, “Treatment of schizophrenia and related disorders” (Abbott Laboratories, priority 2009, dated 2012)
